Results reported in patent US6951870B2, “Coumarin derivatives with COMT inhibiting activity” (Orion Corporation, priority 2000, dated 2005).

target: T1, S-COMT enzyme (Homo sapiens, UniProt P21964); experiment: Determination of COMT activity (IC50); type: biochemical; conditions: S-COMT about 30 nM, 3 mM dopamine substrate, 0.05 mM AdoMet, 5 mM MgCl2, pH 7.4, 37° C., 15 min
T1 sequence (P21964 1-221 isoform P21964-2): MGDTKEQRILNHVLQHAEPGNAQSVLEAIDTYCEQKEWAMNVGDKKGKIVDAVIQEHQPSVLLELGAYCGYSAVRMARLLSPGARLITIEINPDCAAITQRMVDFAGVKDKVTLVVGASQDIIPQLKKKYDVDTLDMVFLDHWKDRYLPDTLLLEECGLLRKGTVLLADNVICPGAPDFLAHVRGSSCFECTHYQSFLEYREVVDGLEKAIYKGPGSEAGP
Experimental: Experiment I: Determination of COMT Activity (IC50)
The determination of IC50 was performed by mesuring the COMT activity in a test sample which contained S-COMT enzyme (about 30 nM), 3 mM dopamine (as the substrate of COMT), 5 mM magnesium chloride, 0.05 mM S-adenosyl-L-methionine (AdoMet) and a test compound of the invention at various concentrations in 0.1 M phosphate buffer, pH 7.4, at 37° C.
The reaction in the test sample was initiated by adding the dopamine substrate to the sample mixture and, after incubation for 15 min at 37° C., the reaction was stopped with 4 M perchloric acid and stabilized further 10 min in ice bath. Thereafter the precipitated proteins were removed by centrifugation (4000×G for 10 min). The activity of COMT enzyme was measured by determining the concentration of the reaction products, 3-methyldopamine and 4-methyidopamine, by HPLC. The results were calibrated with 3-methyidopamine standards. See also T.Lotta et al., Biochemistry, vol.34(13), 1995, p.4204, T.Lotta et al. The IC50 value is the concentration of the test compound which causes a 50% decrease in COMT activity.

Structure (SMILES)	IC50
O=C(O)c1cc2cc(O)c(O)c([N+](=O)[O-])c2oc1=O [Example 10(d), 6,7-Dihydroxy-8-nitro-2-oxo-2H-chromene-3-carboxylic acid]	35 nM
O=c1oc2cc(O)c(O)c([N+](=O)[O-])c2c2c1CCCC2 [Example 8, 2,3-Dihydroxy-1-nitro-7,8,9,10-tetrahydro-benzo[c]chromen-6-one]	50 nM
Cc1c(CC(=O)O)c(=O)oc2cc(O)c(O)c([N+](=O)[O-])c12 [Example 13(c), (6,7-Dihydroxy-4-methyl-5-nitro-2-oxo-2H-chromen-3-yl)-acetic acid]	60 nM
O=c1oc2cc(O)c(O)c([N+](=O)[O-])c2cc1-c1nnn[nH]1 [Example 12(b), 6,7-Dihydroxy-5-nitro-3-(1H-tetrazol-5-yl)-chromen-2-one]	10 nM

Further lines, results first:

IC50	Structure (SMILES)
30 nM	O=c1oc2c([N+](=O)[O-])c(O)c(O)cc2cc1-c1ccccc1 [Example 6(b), 6,7-Dihydroxy-8-nitro-3-phenyl-chromen-2-one]
20 nM	O=C(O)c1cc2c([N+](=O)[O-])c(O)c(O)cc2oc1=O [Example 9(c), 6,7-Dihydroxy-5-nitro-2-oxo-2H-chromene-3-carboxylic acid]
10 nM	O=C(O)Cc1cc2c([N+](=O)[O-])c(O)c(O)cc2oc1=O [Example 11(c), (6,7-Dihydroxy-5-nitro-2-oxo-2H-chromen-3-yl)-acetic acid]
30 nM	O=C(c1ccccc1)c1cc2c([N+](=O)[O-])c(O)c(O)cc2oc1=O [Example 7, 3-Benzoyl-6,7-dihydroxy-5-nitro-chromen-2-one]
